The source of these data is patent US11013710B2, “Synergistic compositions of bioactive agents for optimizing cellular health” (CELAGENEX RESEARCH (INDIA) PVT. LTD., priority 2018, dated 2021).

Test [1] concerns HepG2 cells. Briefly: DNA fragmentation (DNA ladder assay) in HepG2 cells. The class given is cell-based, Human. As for the experimental part:
FIG. 3 depicts DNA ladder assay of test substances on HepG2 cell line; L=100 bp Ladder, Lane 1=AAPH (1 mM), Lane 2=cell control, Lane 3=G3 (250 μg/ml), Lane 4=G4(250 μg/ml), Lane 5=G5 (5:125-250 μg/ml), Lane 6=G3+AAPH, Lane 7=G4+AAPH, Lane 8=G5+AAPH
HepG2 cells (3×10^6/ml) were seeded into 60 mm petri dishes and incubated at 37° C. with 5% CO2 atmosphere for 24 h. The cells were washed with medium and were treated with extract, standard substance and incubated at 37° C., 5% CO2 for 24 hrs. At the incubation time ended, the chromosomal DNA of cancer cells was prepared with G Biosciences, USA apoptotic DNA ladder kit. Total genomic DNA was extracted and resolved on a 1% agarose gel. Apoptotic DNA fragmentation was visualized by ethidium bromide staining under UV transilluminator and photographed. (FIG. 3)

Test [2] relates to carrageenan induced rat paw edema. Briefly: Carrageenan induced rat paw edema model (acute anti-inflammatory activity). The following applies: for % inhibition of paw edema at 6th hr.: pretreated 1 hr before, L-EGT 0.512 mg/kg, NMN chloride 12.33 mg/kg, combination 0.512+12.33 mg/kg bw, vs positive control; for paw edema compared with Positive control group (G2): result in words. It counts as in vivo. As for the experimental part:
In study thirty (30) rats, were divided into total […] groups. […] G3-G4 groups are referred as test substances. Acute anti inflammatory activity was measured using carrageenan induced rat paw edema model. Acute inflammation was induced by the sub planter administration of 0.1 ml of 1% carrageenan (0.9% NaCl solution) in the right hind paw of the rats. Group 1 was treated with normal saline. Group 2 positive control was treated with normal saline (with paw edema induction). Group 3, Group 4 and Group 5 were treated with test substance (G1—0.512 mg/kg, G2—12.33 mg/kg and G3-0.512 mg/kg+12.33 mg/kg bw) respectively. Excluding control group, all groups were pretreated 1 hr before eliciting paw edema. […] The perimeter of paw was measured by using vernier calipers. After the completions of the paw volume measurement animals were anesthetized and blood was collected for biochemical parameter analysis. The anti-inflammatory activity was calculated by following formula % inhibition of edema=((T−T0)/T)×100 T: Thickness of paw in positive control group T0: Thickness of paw edema in the test compound treated groups. The values were expressed in Mean±SEM. The significance of in vivo data was analyzed by One way anova followed by Dunnet test. P<0.05 was considered as statistically significant
(In general: In the carrageenan paw model, swelling and tenderness develop within hours.)

For test [3], the system named is Nrf2. Briefly: In vitro gene expression of Nrf2 (RT-PCR) in HepG2. The class given is cell-based, Human. The conditions noted are these: HepG2, 250 μg/ml; cell control 1.00. As for the experimental part: Nrf2 were estimated for the test substance by gene expression method, where the level of expression of Nrf2 expression on Human Hepatocytes (HepG2) was determined with respect to untreated HepG2 cells. The HepG2 cells treated with drug were subjected to cell lysis by treating with Tri-extract reagent. Chloroform was added, to isolate the total RNA from the sample and subjected for centrifugation. […] After the incubation followed by centrifugation, appropriate volume of ethanol was added to resuspend the pellet. After incubation and centrifugation, the pellet was air dried and appropriate volume of TAE buffer was added. […] The cDNA thus synthesized was taken up for Polymerase chain reaction (PCR) for the amplification of Nrf2 and Glyceraldehyde 3-phosphate dehydrogenase GAPDH (internal control). The mRNA expression levels of Nrf2 were determined using semi-quantitative reverse transcriptase-polymerase chain reaction (RT-PCR). 50 μl of the reaction mixture was subjected to PCR for amplification of Nrf2. cDNAs using specifically designed primers procured from Eurofins, India and as an internal control GAPDH (House keeping gene) was co-amplified with each reaction. Nrf2: 95° C. for 5 min followed by 35 cycles of denaturation at 95° C. for 30 seconds, annealing Tm for 30 seconds and extension at 72° C. for 45 seconds. This was followed by final extension at 72° C. for 10 min.

Test [4] relates to IL-6. Briefly: Serum IL-6 levels in carrageenan paw edema rats. The conditions noted are these: for IL-6: rat serum after paw volume measurement, Mean±SEM; for Serum interleukin-6 compared with positive control (G2) / Percentage inhibition over control (serum IL-6): rat serum; for Serum interleukin-6 compared with positive control (G2): result in words; for Percentage inhibition over control (serum IL-6): vs positive control. The class given is in vivo, Rat. As for the experimental part: (§1) Acute anti inflammatory activity was measured using carrageenan induced rat paw edema model. Acute inflammation was induced by the sub planter administration of 0.1 ml of 1% carrageenan (0.9% NaCl solution) in the right hind paw of the rats. Group 1 was treated with normal saline. Group 2 positive control was treated with normal saline (with paw edema induction). Group 3, Group 4 and Group 5 were treated with test substance (G1—0.512 mg/kg, G2—12.33 mg/kg and G3-0.512 mg/kg+12.33 mg/kg bw) respectively. Excluding control group, all groups were pretreated 1 hr before eliciting paw edema. The linear paw circumference was measured at Time intervals: 0, 30, 60, 120, 180 and 240 mins. The perimeter of paw was measured by using vernier calipers. After the completions of the paw volume measurement animals were anesthetized and blood was collected for biochemical parameter analysis. The values were expressed in Mean±SEM. The significance of in vivo data was analyzed by One way anova followed by Dunnet test. P<0.05 was considered as statistically significant

In test [5] the test system is TNF-Alpha. Briefly: Serum TNF-Alpha levels in carrageenan paw edema rats. It counts as in vivo, Rat. The conditions noted are these: for TNF-Alpha: rat serum after paw volume measurement, Mean±SEM; for Serum TNF-Alpha compared with positive control (G2) / Percentage inhibition over control (serum TNF-Alpha): rat serum; for Serum TNF-Alpha compared with positive control (G2): result in words; for Percentage inhibition over control (serum TNF-Alpha): vs positive control. The procedure: as §1

For test [6], the system named is HepG2 cell line. In words: In vitro cytotoxicity (MTT) against HepG2 cell line. The following applies: 72 h. The class given is cell-based, Human. As for the experimental part: In-vitro cytotoxicity of the nutrients, G3, G4 and G5 were tested against HepG2 cell line. Nutrients were taken at concentrations ranging from 1000 μg/ml to 62.5 μg/ml to determine the percentage growth inhibition of individual substance on HepG2 cell line. The samples G3 and G4 produced a CTC50 value of above 1000 μg/ml. […] [Journal of Immunological Methods, 1986; 89:271-277].
The in vitro cytotoxicity was performed for samples G3, G4 and G5 on HepG2 to find toxic concentration and to determine the apoptotic activity of G3, G4 and G5.
For cytotoxicity studies, 10 mg of test substance was separately dissolved and volume was made up with MEM supplemented with 2% inactivated FBS to obtain a stock solution of 1 mg/ml concentration and sterilized by 0.22μ syringe filtration. Serial two fold dilutions were prepared from this for carrying out cytotoxic studies.
HepG2 (Human Hepatocyte) cell line was procured from National Centre for Cell Sciences (NCCS), Pune, India. Stock cells were cultured in MEM supplemented with 10% inactivated Fetal Bovine Serum (FBS), penicillin (100 IU/ml), streptomycin (100 μg/ml) and amphotericin B (5 μg/ml) in an humidified atmosphere of 5% CO2 at […] until confluent. The cells were dissociated with TPVG solution (0.2% trypsin, 0.02% EDTA, 0.05% glucose in PBS). The stock cultures were grown in 25 cm^2 culture flasks and all experiments were carried out in 96 microtitre plates (Tarsons India Pvt. Ltd., Kolkata, India).
The monolayer cell culture was trypsinized and the cell count was adjusted to 100,000 cells/ml using DMEM-HG containing 10% FBS. To each well of the 96 well microtitre plate, 0.1 ml of the diluted cell suspension was added. After 24 h, when a partial monolayer was formed, the supernatant was flicked off, washed the monolayer once with medium and 100 μl of different test concentrations of test substances were added on to the partial monolayer in microtitre plates. The plates were then incubated at 37° C. for 3 days in 5% CO2 atmosphere, and microscopic examination was carried out and observations were noted every 24 h interval. After 72 h, the substance solutions in the wells were discarded and 50 μl of MTT in PBS was added to each well. The plates were gently shaken and incubated for 3 h at 37° C. in 5% CO2 atmosphere. The supernatant was removed and 100 μl of propanol was added and the plates were gently shaken to solubilize the formed formazan. The absorbance was measured using a microplate reader at a wavelength of 540 nm. The percentage growth inhibition was calculated using the standard formula and concentration of test substance needed to inhibit cell growth by 50% (CTC50) values is generated from the dose-response curves for each cell line.
For cytotoxicity studies, 10 mg of test substance powder was separately dissolved and volume was made up with DMEM supplemented with 2% inactivated FBS to obtain a stock solution of 10 mg/ml concentration and sterilized by 0.22μ syringe filtration. Serial two fold dilutions were prepared from this for carrying out cytotoxic studies.
HepG2 (Human Hepatocyte) cell line was procured from National Centre for Cell Sciences (NCCS), Pune, India. Stock cells were cultured in DMEM supplemented with 10% inactivated Fetal Bovine Serum (FBS), penicillin (100 IU/ml), streptomycin (100 μg/ml) and amphotericin B (5 μg/ml) in an humidified atmosphere of 5% CO2 at 37° C. until confluent. The cells were dissociated with TPVG solution (0.2% trypsin, 0.02% EDTA, 0.05% glucose in PBS). The stock cultures were grown in 25 cm2 culture flasks and all experiments were carried out in 96 microtitre plates (Tarsons India Pvt. Ltd., Kolkata, India).
The monolayer cell culture was trypsinized and the cell count was adjusted to 100,000 cells/ml using medium containing 10% FBS. To each well of the 96 well microtitre plate, 0.1 ml of the diluted cell suspension was added. […]

Some results are limits rather than exact numbers.

On to `CC(C)(N=NC(C)(C)C(=N)N)C(=N)N.Cl.Cl` [AAPH, 2,2′-azobis(2-amidinopropane)dihydrochloride, reference compound], for which the DNA fragmentation result in test [1] (HepG2, AAPH (1 mM)) is listed as “showed a smear in the gel indicating the DNA fragmentation”.
Broadly, the inhibition is the relative decrease from the control value, in per cent. Low values mean little suppression, high ones strong suppression. For the compound `C[N+](C)(C)[C@@H](Cc1c[nH]c(=S)[nH]1)C(=O)[O-]` [L-Ergothioneine], in test [2], the “% inhibition of paw edema at 6th hr.” value worked out at 35.08% and the “paw edema compared with Positive control group (G2)” value is “significant decreases paw edema”. For the same compound, in test [3], the “Regulation in Terms of Folds (gene expression level of Nrf2 normalized to GAPDH)” value is above 1.0 Folds. Moreover, the DNA fragmentation result in test [1] (HepG2, 250 μg/ml, 24 hrs) is reported as “did not exhibit any fragmentation of DNA”. For the same compound, in test [4], the “IL-6” value was 85.25 ± 0.30 pg/mL, the “Serum interleukin-6 compared with positive control (G2)” value is reported as “significantly decreased” and the “Percentage inhibition over control (serum IL-6)” value is recorded as 15.74%. In test [5], the “TNF-Alpha” value is 201.5 ± 1.96 pg/mL, the “Serum TNF-Alpha compared with positive control (G2)” value was “significantly decreased” and the “Percentage inhibition over control (serum TNF-Alpha)” value is listed as 13.21%. Also, at 62.5 µg/mL the inhibition in test [6] (Homo sapiens, Test Conc. 62.5 μg/ml) was 6.62 ± 0.88%. In test [6] (Homo sapiens, Test Conc. 125 μg/ml), this compound registered an inhibition at 125 µg/mL of 11 ± 1.31%. Moreover, in test [6] (Homo sapiens, Test Conc. 250 μg/ml), at 250 µg/mL the inhibition was 19 ± 1.05%. The compound also gave an inhibition at 1000 µg/mL in test [6] (Homo sapiens, Test Conc. 1000 μg/ml) of 30 ± 1.52%. Further, in test [6] (Homo sapiens, concentration needed to inhibit cell growth by 50%, read-out: CTC 50 in μg/ml), the IC50 was above 1000 µg/mL.
What is called % Inhibition is the share of the control response that was lost under treatment. On to Nicotinamide mononucleotide chloride, for which, in test [2], the “% inhibition of paw edema at 6th hr.” value came to 40.80% and the “paw edema compared with Positive control group (G2)” value is listed as “significant decreases paw edema”. Further, the “Regulation in Terms of Folds (gene expression level of Nrf2 normalized to GAPDH)” value in test [3] is above 1.0 Folds. Further, the DNA fragmentation result in test [1] (HepG2, 250 μg/ml, 24 hrs) is on record as “did not exhibit any fragmentation of DNA”. Moreover, in test [4], the “IL-6” value stood at 79.55 ± 0.95 pg/mL, the “Serum interleukin-6 compared with positive control (G2)” value is “significantly decreased” and the “Percentage inhibition over control (serum IL-6)” value was determined as 21.34%. Besides, in test [5], the “TNF-Alpha” value was 185.2 ± 4.37 pg/mL, the “Serum TNF-Alpha compared with positive control (G2)” value is on record as “significantly decreased” and the “Percentage inhibition over control (serum TNF-Alpha)” value turned out to be 20.18%. In test [6] (Test Conc. 62.5 μg/ml), the “% Inhibition” value worked out at 5.26 ± 1.5%. The “% Inhibition” value in test [6] (Test Conc. 125 μg/ml) is recorded as 11.15 ± 3.32%. Moreover, the “% Inhibition” value in test [6] (Test Conc. 250 μg/ml) was 17.56 ± 1.16%. Further, in test [6] (Test Conc. 500 μg/ml), the “% Inhibition” value turned out to be 24.19 ± 1.59%. In addition, the “% Inhibition” value in test [6] (Test Conc. 1000 μg/ml) is on record as 31.49 ± 0.79%.
